Tests used:
Assay type in all cases: functional
Mus musculus [1] = assay: Analgesic activity in sc dosed mouse assessed as phenylquinone-induced writhing measured for 10 mins
Mus musculus [2] = assay: Narcotic antagonist activity in sc dosed mouse assessed as reversal of oxymorphone-induced straub tail response administered 10 mins before oxymorphone challenge
Mus musculus [3] = assay: Narcotic antagonist activity in sc dosed mouse assessed as reversal of oxymorphone-induced narcosis
Rattus norvegicus [4] = assay: Analgesic activity in sc dosed rat assessed as phenylquinone-induced writhing measured for 10 mins
Rattus norvegicus [5] = species on record: Rattus norvegicus; assay: Antagonist activity in rat assessed as morphine-induced analgesia by […] tail flick test
[6] = Mus musculus, sc, 10 min, read-out: ED50
[7] = Mus musculus, sc, read-out: ED50

Compound | ED50 (Mus musculus [1]; [6]) | ED50 (Mus musculus [2]; [7]) | ED50 (Mus musculus [3]) | ED50 (Rattus norvegicus [4]) | ED50 (Mus musculus [1]) | ED50 (Rattus norvegicus [5]) | ED50 (Mus musculus [2])
C[C@]12OCCC[C@@]13CCN(CC1CCC1)[C@@H]2Cc1ccc(O)cc13 | 16 mg/kg | 5 mg/kg |  |  |  |  | 
CN1CC[C@]23CCCO[C@]2(C)[C@H]1Cc1ccc(O)cc13 | > 40 mg/kg | > 40 mg/kg |  |  |  |  | 
C[C@]12OCCC[C@@]13CCN(CC1CC1)[C@@H]2Cc1ccc(O)cc13 | 35 mg/kg | 6 mg/kg |  |  |  |  | 
Oc1ccc2c(c1)[C@@]13CCCO[C@H]1[C@@H](C2)N(CC1CC1)CC3 (stereo in doubt; (-)-6c) |  |  | 0.04 mg/kg | 0.09 mg/kg | 0.013 mg/kg | 0.097 mg/kg | 0.26 mg/kg
CC(C)=CCN1CC[C@]23CCCO[C@@]2(C)[C@H]1Cc1ccc(O)cc13 | 0.18 mg/kg | > 40 mg/kg |  |  |  |  | 
C=CCC12CCN(C)C(Cc3ccc(O)cc31)[C@@H]2O (stereo partly specified) | > 40 mg/kg | > 40 mg/kg |  |  |  |  | 
Oc1ccc2c(c1)[C@@]13CCCC[C@@]1(O)[C@@H](C2)N(CC1CCC1)CC3 [BUTORPHANOL] | 0.051 mg/kg | 0.98 mg/kg | 0.27 mg/kg | 0.04 mg/kg |  | 0.43 mg/kg | 
C=CCC12CCN(CC3CCC3)C(Cc3ccc(O)cc31)[C@@H]2O (stereo partly specified) | 11 mg/kg | 4.5 mg/kg |  |  |  |  | 
CN1CC[C@]23CCCO[C@@]2(C)[C@H]1Cc1ccc(O)cc13 | 0.03 mg/kg | > 40 mg/kg |  |  |  |  | 
CC1CC23CCN(C)C(Cc4ccc(O)cc42)C3(C)O1 (stereo unspecified) | 0.4 mg/kg | > 40 mg/kg |  |  |  |  | 
C[C@@]12OCCC[C@@]13CCN(CC1CCC1)[C@@H]2Cc1ccc(O)cc13 | 0.068 mg/kg | 23 mg/kg |  |  |  |  | 
CN1CC[C@]23CCCO[C@@H]2[C@H]1Cc1ccc(O)cc13 | 30 mg/kg | > 40 mg/kg |  |  |  |  | 
CC1CC23CCN(CC4CC4)C(Cc4ccc(O)cc42)C3(C)O1 (stereo unspecified) | > 40 mg/kg | 5 mg/kg |  |  |  |  | 
C[C@@]12OCCC[C@@]13CCN(CC1CC1)[C@@H]2Cc1ccc(O)cc13 (stereo in doubt; (-)-6d) |  |  | 0.014 mg/kg | 0.2 mg/kg | 0.105 mg/kg | 0.021 mg/kg | 0.2 mg/kg
CC1CC23CCN(C)C(Cc4ccc(O)cc42)C3O1 (stereo unspecified) | 1.8 mg/kg | > 40 mg/kg |  |  |  |  | 
Oc1ccc2c(c1)[C@@]13CCCO[C@H]1[C@@H](C2)N(CC1CCC1)CC3 | 0.15 mg/kg | 10 mg/kg |  |  |  |  | 
C[C@@]12OCCC[C@@]13CCN(CC1CC1)[C@@H]2Cc1ccc(O)cc13 (stereo in doubt; 6d) |  |  |  |  | 0.19 mg/kg |  | 0.61 mg/kg
Oc1ccc2c(c1)[C@@]13CCCC[C@H]1[C@@H](C2)N(CC1CC1)CC3 [CYCLORPHAN] | 0.013 mg/kg | 0.32 mg/kg | 0.1 mg/kg | 0.028 mg/kg |  | 0.032 mg/kg | 
C=CCC12CCN(CC3CCC3)C(Cc3ccc(O)cc31)[C@]2(C)O (stereo partly specified) | 1.3 mg/kg | 10 mg/kg |  |  |  |  | 
C=CCC12CCN(CC3CC3)C(Cc3ccc(O)cc31)[C@]2(C)O (stereo partly specified) | > 40 mg/kg | 0.8 mg/kg |  |  |  |  | 
C=CCC12CCN(CC3CC3)C(Cc3ccc(O)cc31)[C@@H]2O (stereo partly specified) | 0.23 mg/kg | 1.9 mg/kg |  |  |  |  | 
Oc1ccc2c(c1)[C@@]13CCCO[C@H]1[C@@H](C2)N(CC1CC1)CC3 (stereo in doubt; (+)-6c) |  |  |  |  | >40 mg/kg |  | >40 mg/kg
Oc1ccc2c(c1)[C@@]13CCCO[C@@H]1[C@@H](C2)N(CC1CC1)CC3 | 8.4 mg/kg | 20 mg/kg |  |  |  |  | 
C[C@@]12OCCC[C@@]13CCN(CC1CC1)[C@@H]2Cc1ccc(O)cc13 (stereo in doubt; (+)-6d) |  |  |  |  | >40 mg/kg |  | >40 mg/kg
Oc1ccc2c(c1)[C@@]13CCCO[C@H]1[C@@H](C2)N(CC1CC1)CC3 (stereo in doubt; 6c) |  |  |  |  | 0.03 mg/kg |  | 0.3 mg/kg
C=CCN1CC[C@]23CCCO[C@@]2(C)[C@H]1Cc1ccc(O)cc13 | 28 mg/kg | 1 mg/kg |  |  |  |  | 
CN1CC[C@]23CCCO[C@H]2[C@H]1Cc1ccc(O)cc13 | 0.6 mg/kg | > 40 mg/kg |  |  |  |  | 
Oc1ccc2c(c1)[C@@]13CCCC[C@@]1(O)[C@@H](C2)N(CC1CC1)CC3 [OXILORPHAN] | 12.8 mg/kg | 0.19 mg/kg | 0.03 mg/kg | 8 mg/kg |  | 0.012 mg/kg | 
